Assay [1] has as its system human cervical tumor cell line HeLa (ATCC CCL-2). As to the kind of experiment: SAC-Formation - Nocodazole-Induced Assay. It counts as cell-based. Particulars: Homo sapiens, HeLa, 24 h, HeLa cells, nocodazole 0.1 μg/ml together with test compound, decrease of mitotic cells (phospho-histone H3 Ser10). The essentials: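 Loss of phospho-histone H3 Ser10-positive cells, counted against Hoechst-stained nuclei by high-content imaging, marked mitotic breakthrough. Compounds (0.005–20 μM, 0.5% DMSO) were co-dosed with 0.1 μg/ml nocodazole onto HeLa cells for 24 h at 37 °C. Curves were fitted with a four-parameter Hill equation.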

Assay [2] has the same test system. As to the kind of experiment: SAC-Formation - Paclitaxel-Induced Assay. The following applies: Homo sapiens, HeLa, 24 h, HeLa cells, paclitaxel 0.05 μM, test range 0.005 μM-20 μM, read-out: IC50 [mol/l] SAC-Formation - Paclitaxel-Induced Assay. Type of assay: cell-based. The essentials:
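Read-out is high-content imaging of anti-phospho-H3 Ser10 (mitosis) and Hoechst 33342 (DNA, cell number), with decreased mitotic fraction marking checkpoint breakthrough. Compounds (0.005–20 μM) and 0.05 μM paclitaxel co-added to overnight-plated HeLa for 24 h at 37° C; four-parameter Hill fit.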

Each structure is given as a SMILES string.

Take `Cc1nsc(Nc2cncc(C(F)(F)F)n2)c1C(=O)Nc1ccc(F)c(OC2CCN(CCC(F)(F)F)CC2)c1` [Example 343, N-(4-fluoro-3-{[1-(3,3,3-trifluoropropyl)piperidin-4-yl]oxy}phenyl)-3-methyl-5-{[6-(trifluoromethyl)pyrazin-2-yl]amino}-1,2-thiazole-4-carboxamide]: the IC50 in assay [1] and in assay [2] was 210 nM each time.
With `Cc1nsc(Nc2cnc(C(F)(F)F)cn2)c1C(=O)Nc1ccc(OCC2CCN(CCF)CC2)nc1` [Example 344, N-(6-{[1-(2-fluoroethyl)piperidin-4-yl]methoxy}pyridin-3-yl)-3-methyl-5-{[5-(trifluoromethyl)pyrazin-2-yl]amino}-1,2-thiazole-4-carboxamide], the IC50 came to 290 nM in assay [1] and 280 nM in assay [2].
`Cc1nsc(Nc2cnc(C(F)(F)F)cn2)c1C(=O)Nc1ccc(OCC2CCN(CC(F)F)CC2)nc1` [Example 345, N-(6-{[1-(2,2-difluoroethyl)piperidin-4-yl]methoxy}pyridin-3-yl)-3-methyl-5-{[5-(trifluoromethyl)pyrazin-2-yl]amino}-1,2-thiazole-4-carboxamide]: the IC50 turned out to be 28 nM in assay [1] and 21 nM in assay [2].
On to `Cc1nsc(Nc2cnc(C(F)(F)F)cn2)c1C(=O)Nc1ccc(OCC2CCN(CC(F)(F)F)CC2)nc1` [Example 346, 3-methyl-N-(6-{[1-(2,2,2-trifluoroethyl)piperidin-4-yl]methoxy}pyridin-3-yl)-5-{[5-(trifluoromethyl)pyrazin-2-yl]amino}-1,2-thiazole-4-carboxamide], for which the IC50 was 33 nM in assay [1] and 32 nM in assay [2].
For `Cc1nsc(Nc2cnc(C(F)(F)F)cn2)c1C(=O)Nc1ccc(OCC2CCN(CCC(F)(F)F)CC2)nc1` [Example 347, 3-methyl-5-{[5-(trifluoromethyl)pyrazin-2-yl]amino}-N-(6-{[1-(3,3,3-trifluoropropyl)piperidin-4-yl]methoxy}pyridin-3-yl)-1,2-thiazole-4-carboxamide], the IC50 is 40 nM in assay [1] and 64 nM in assay [2].
Regarding `Cc1nsc(Nc2cnc(C(F)(F)F)cn2)c1C(=O)Nc1ccc(OCCN(C)CCF)nc1` [Example 348, N-(6-{2-[(2-fluoroethyl)(methyl)amino]ethoxy}pyridin-3-yl)-3-methyl-5-{[5-(trifluoromethyl)pyrazin-2-yl]amino}-1,2-thiazole-4-carboxamide], the IC50 was 310 nM in assay [1] and 520 nM in assay [2].
In the same order, the values of `Cc1nsc(Nc2cnc(C(F)(F)F)cn2)c1C(=O)Nc1ccc(OCCN(C)CC(F)F)nc1` [Example 349, N-(6-{2-[(2,2-difluoroethyl)(methyl)amino]ethoxy}pyridin-3-yl)-3-methyl-5-{[5-(trifluoromethyl)pyrazin-2-yl]amino}-1,2-thiazole-4-carboxamide] are 81 nM and 50 nM.
In the same order, the values of `Cc1nsc(Nc2cnc(C(F)(F)F)cn2)c1C(=O)Nc1ccc(OCCN(C)CC(F)(F)F)nc1` [Example 350, 3-methyl-N-(6-{2-[methyl(2,2,2-trifluoroethyl)amino]ethoxy}pyridin-3-yl)-5-{[5-(trifluoromethyl)pyrazin-2-yl]amino}-1,2-thiazole-4-carboxamide] are 99 nM and 57 nM.
Turning to `Cc1nsc(Nc2cnc(C(F)(F)F)cn2)c1C(=O)Nc1ccc(OCCN(C)CCC(F)(F)F)nc1` [Example 351, 3-methyl-N-(6-{2-[methyl(3,3,3-trifluoropropyl)amino]ethoxy}pyridin-3-yl)-5-{[5-(trifluoromethyl)pyrazin-2-yl]amino}-1,2-thiazole-4-carboxamide], the values for the IC50 in assay [1] and in assay [2] were 98 nM and 210 nM, respectively.
As to `Cc1nsc(Nc2cnc(C(F)(F)F)cn2)c1C(=O)Nc1ccc(OCCCN(C)CCF)nc1` [Example 352, N-(6-{3-[(2-fluoroethyl)(methyl)amino]propoxy}pyridin-3-yl)-3-methyl-5-{[5-(trifluoromethyl)pyrazin-2-yl]amino}-1,2-thiazole-4-carboxamide], the IC50 in assay [1] was 470 nM; in assay [2], 520 nM.
In the case of `Cc1nsc(Nc2cnc(C(F)(F)F)cn2)c1C(=O)Nc1ccc(OCCCN(C)CC(F)F)nc1` [Example 353, N-(6-{3-[(2,2-difluoroethyl)(methyl)amino]propoxy}pyridin-3-yl)-3-methyl-5-{[5-(trifluoromethyl)pyrazin-2-yl]amino}-1,2-thiazole-4-carboxamide], the IC50 in assay [1] was determined as 96 nM; in assay [2], 150 nM.
As for `Cc1nsc(Nc2cnc(C(F)(F)F)cn2)c1C(=O)Nc1ccc(OCCCN(C)CC(F)(F)F)nc1` [Example 354, 3-methyl-N-(6-{3-[methyl(2,2,2-trifluoroethyl)amino]propoxy}pyridin-3-yl)-5-{[5-(trifluoromethyl)pyrazin-2-yl]amino}-1,2-thiazole-4-carboxamide], the IC50 in assay [1] is 110 nM; in assay [2], 120 nM.
In the same order, the values of `Cc1nsc(Nc2cnc(C(F)(F)F)cn2)c1C(=O)Nc1ccc(OCCCN(C)CCC(F)(F)F)nc1` [Example 355, 3-methyl-N-(6-{3-[methyl(3,3,3-trifluoropropyl)amino]propoxy}pyridin-3-yl)-5-{[5-(trifluoromethyl)pyrazin-2-yl]amino}-1,2-thiazole-4-carboxamide] are 150 nM and 190 nM.
As to `Cc1nsc(Nc2cnc(C(F)(F)F)cn2)c1C(=O)Nc1ccc(CCC2CCN(CC(F)F)CC2)nc1` [Example 356, N-(6-{2-[1-(2,2-difluoroethyl)piperidin-4-yl]ethyl}pyridin-3-yl)-3-methyl-5-{[5-(trifluoromethyl)pyrazin-2-yl]amino}-1,2-thiazole-4-carboxamide], the IC50 turned out to be 50 nM in assay [1] and 250 nM in assay [2].
On to `Cc1nsc(Nc2cnc(C(F)(F)F)cn2)c1C(=O)Nc1ccc(C2CCN(CC(F)F)CC2)nc1` [Example 357, N-{6-[1-(2,2-difluoroethyl)piperidin-4 yl]pyridin-3-yl}-3-methyl-5-{[5-(trifluoromethyl)pyrazin-2-yl]amino}-1,2-thiazole-4-carboxamide], for which the IC50 in assay [1] worked out at 44 nM; in assay [2] it was 99 nM.
In the same order, the values of `Cc1nsc(Nc2cnc(C(F)(F)F)cn2)c1C(=O)Nc1ccc(C2CCN(CC(F)(F)F)CC2)nc1` [Example 358, 3-methyl-N-{6-[1-(2,2,2-trifluoroethyl)piperidin-4-yl]pyridin-3-yl}-5-{[5-(trifluoromethyl)pyrazin-2-yl]amino}-1,2-thiazole-4-carboxamide] are 30 nM and 68 nM.
In the same order, the values of `Cc1nsc(Nc2cnc(C(F)(F)F)cn2)c1C(=O)Nc1ccc(N2CCN(CC(F)F)CC2)nc1` [Example 359, N-{6-[4-(2,2-difluoroethyl)piperazin-1-yl]pyridin-3-yl}-3-methyl-5-{[5-(trifluoromethyl)pyrazin-2-yl]amino}-1,2-thiazole-4-carboxamide] are 29 nM and 110 nM.
Consider `Cc1nsc(Nc2cnc(C(F)(F)F)cn2)c1C(=O)Nc1ccc(N2CCN(CC(F)(F)F)CC2)nc1` [Example 360, 3-methyl-N-{6-[4-(2,2,2-trifluoroethyl)piperazin-1-yl]pyridin-3-yl}-5-{[5-(trifluoromethyl)pyrazin-2-yl]amino}-1,2-thiazole-4-carboxamide], for which the figures for the IC50 in assay [1] and in assay [2] were 36 nM and 75 nM, respectively.
With `Cc1nsc(Nc2cnc(C(F)(F)F)cn2)c1C(=O)Nc1ccc(N2CCN(CCC(F)(F)F)CC2)nc1` [Example 361, 3-methyl-5-{[5-(trifluoromethyl)pyrazin-2-yl]amino}-N-{6-[4-(3,3,3-trifluoropropyl)piperazin-1-yl]pyridin-3-yl}-1,2-thiazole-4-carboxamide], the IC50 in assay [1] is 68 nM; in assay [2], 120 nM.
Regarding `Cc1nsc(Nc2cnc(C(F)(F)F)cn2)c1C(=O)Nc1ccc(O[C@H]2CCN(CC(F)F)C[C@@H]2F)nc1` [Example 362], the IC50 worked out at 2.3 nM in assay [1] and 59 nM in assay [2].
With `Cc1nsc(Nc2cnc(C(F)(F)F)cn2)c1C(=O)Nc1ccc(O[C@H]2CCN(CC(F)(F)F)C[C@@H]2F)nc1` [Example 363, N-(6-{[(3S,4S)-3-fluoro-1-(2,2,2-trifluoroethyl)piperidin-4-yl]oxy}pyridin-3-yl)-3-methyl-5-{[5-(trifluoromethyl)pyrazin-2-yl]amino}-1,2-thiazole-4-carboxamide], the IC50 amounted to 110 nM in assay [1] and 47 nM in assay [2].
`Cc1nsc(Nc2cnc(C(F)(F)F)cn2)c1C(=O)Nc1ccc(O[C@H]2CCN(CCC(F)(F)F)C[C@@H]2F)nc1` [Example 364, N-(6-{[(3S,4S)-3-fluoro-1-(3,3,3-trifluoropropyl)piperidin-4-yl]oxy}pyridin-3-yl)-3-methyl-5-{[5-(trifluoromethyl)pyrazin-2-yl]amino}-1,2-thiazole-4-carboxamide]: the IC50 turned out to be 12 nM in assay [1] and 40 nM in assay [2].
With `CCN1CC[C@H](Oc2ccc(NC(=O)c3c(C)nsc3Nc3cnc(C(F)(F)F)cn3)cn2)[C@@H](F)C1` [Example 365, N-(6-{[(3S,4S)-1-ethyl-3-fluoropiperidin-4-yl]oxy}pyridin-3-yl)-3-methyl-5-{[5-(trifluoromethyl)pyrazin-2-yl]amino}-1,2-thiazole-4-carboxamide], the values for the IC50 in assay [1] and in assay [2] were 34 nM and 150 nM, respectively.
